Measurements as given in patent US6646137B1, “Non-peptide GnRH agents” (priority 1998, dated 2003).
Where two headings read alike, the source gives them in different places.

Target: T1, human GnRH receptor (Homo sapiens, UniProt P30968)
T1 construct: The cDNA for the human GnRH receptor is cloned into the plasmid expression vector, pcDNA 3; expressed in transfected cells; host or cells: HEK 293 cells, stably transfected (pcDNA 3); membrane preparation
T1 sequence (P30968 1-328): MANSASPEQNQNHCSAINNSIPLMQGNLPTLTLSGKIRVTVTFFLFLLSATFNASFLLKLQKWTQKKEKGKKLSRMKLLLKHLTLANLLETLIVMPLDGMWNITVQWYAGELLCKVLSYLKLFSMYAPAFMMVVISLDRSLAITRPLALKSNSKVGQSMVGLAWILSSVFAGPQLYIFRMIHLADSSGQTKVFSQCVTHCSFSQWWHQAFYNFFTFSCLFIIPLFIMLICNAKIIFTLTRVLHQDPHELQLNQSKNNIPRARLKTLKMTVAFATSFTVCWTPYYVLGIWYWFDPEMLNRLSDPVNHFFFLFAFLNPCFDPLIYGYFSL
Assay: GnRH receptor competitive radioligand binding assay (125I-GnRH-A, HEK 293 cell membranes)
Settings: compound at 10 μM
Text: The cDNA for the human GnRH receptor is cloned into the plasmid expression vector, pcDNA 3 (In Vitrogen), and stably transfected in HEK 293 cells (a cell line developed by Dr. Stuart Sealfon, Mount Sinai Medical School, New York, N.Y.).
The human GnRH receptor (hGnRH) is cloned into pcDNA 3 (In Vitrogen), which provides high-level expression and a neomycin resistance marker. Lipofectamine (GIBCO BRL) is used to transfect HEK 293 cells with plasmid DNA. This method involves mixing the plasmid and reagent in serum-free medium, allowing DNA-liposome complexes to form, and overlaying cells with this solution. The HEK 293 cells are plated (seeded) on a 10-cm tissue culture dish at a density of 3×10^6 cells/dish the day before transfection. For each plate, 8 μg DNA plus 0.8 mL serum-free medium is mixed with 48 μL lipofectamine plus 0.8 mL serum-free medium, followed by incubation for 30 minutes at room temperature to allow DNA-liposome complexes to form. Serum-free medium is added to give a final volume of 6 mL/plate. The cells are rinsed twice with serum-free medium and overlayed with the DNA-liposome mixture. Five hours after transfection, an equal volume (6 mL) of medium containing 20% FBS (fetal bovine serum) is added. The cells are fed with fresh complete medium 18-24 hours after transfection. The cells are split 72 hours following transfection, at densities of 1:10 and 1:20. Stable tranformants are selected for by growth of the cells in antibiotic containing medium (G418, Sigma Chemical Company (also known as Geneticin)). Colonies are isolated and tested for receptor expression by radioligand binding and by measuring phosphoinositol turnover.
HEK 293 cells stably transfected with human GnRH receptors as described above are grown in MEM (minimal essential medium, available from Sigma Chemical Company) supplemented with 0.1% G418 (Sigma Chemical Company). Cells are homogenized in buffer A containing 50 mM Tris (pH 74.), 0.32M sucrose, 2 mM ethyleneglycol-bis(β-aminoethyl)-N,N,N′,N′-tetraacetic acid (EGTA), 1 mM phenylmethylsulfonyl fluoride (PMSF), 5 μg/mL aprotinen, 5 μg/mL Pepstatin A, and 1 μg/mL leupeptin. The homogenized cells are centrifuged at 4° C. at 20,000×g for 25 minutes, resuspended in buffer A, and recentrifuged at 4° C. at 20,000×g for an additional 25 minutes. Total membrane protein is determined with a BCA kit (Pierce, Rockford, Ill.). Membranes are stored at −70° C. at a final membrane protein concentration of 5 mg/mL.
The radioiodinated agonist analog of GnRH, [des-Gly^10, D-Ala^8]GnRH ethylamide (GnRH-A), is used as the labeled ligand. One μg of GnRH-A diluted in 0.1M acetic acid is added to an lodogen®-coated borosilicate glass tube pierce) containing 35 μL of 0.05M phosphate buffer (pH 7.4-7.6) and 1 mCi of Na[^125I]. The reaction mixture is vortexed and incubated for 1 minute at room temperature. After one minute, the mixture is vortexed again and allowed to incubate for an additional minute. Two mL of 0.5M acetic acid/1% BSA is added to the reaction tube, and the mixture is added to a C18 Sep-Pak cartridge. The cartridge is washed with subsequent washes of 5 mL H2O and 5 mL 0.5M acetic acid, and then eluted with 5×1 mL of 60% CH3CN/40% 0.5M acetic acid. The eluant is diluted with 3×volume of HPLC buffer A (0.1% TFA in H2O) and loaded onto a C18 column. The iodinated product is eluted over 20-25 minutes with a gradient of 25-100% CH3CN containing 0.1% TFA. The radioactive fractions (750 μL/fraction) are collected into clean polypropylene tubes containing 10 μL of 10% BSA. Fractions are assessed for biological activity by radioligand binding. Active fractions are utilized to screen the compounds for competitive binding assays.
HEK 293 cell membranes stably expressing hGnRHR (human GnRH receptors) are diluted to 0.5-1.0 mg/mL with assay buffer containing 50 mM HEPES (pH 7.4), 1 mM ethylenediarninetetraacetic acid (EDTA), 2.5 mM MgCl2, and 0.1% BSA. […]

[1] = average of 1st and 2nd test, read-out: Average % Remaining (percent of specific binding remaining)
[2] = crude compounds, 125I-GnRH-A, lower value = higher inhibition, read-out: % Remaining 1st Test (percent of specific binding remaining)
[3] = crude compounds, 125I-GnRH-A, lower value = higher inhibition, read-out: % Remaining 2nd Test (percent of specific binding remaining)

Row | remaining activity at 10 µM [1] | remaining activity at 10 µM [2] | remaining activity at 10 µM [3] | SMILES
1 | 49% | 48% | 50% | CC(C)(C)c1ccc(CN(CCCCNC(=N)N)C(=O)c2cccc3ccccc23)cc1 [Compound 23]
2 | 56% | 58% | 58% | CC(C)(C)c1ccc(CN(CCCCNC(=N)N)C(=O)c2ccc3ccccc3c2)cc1 [Compound 24]
3 | 46% | 41% | 51% | N=C(N)NCCCCN(CC12CC=CCC1C1CC=CCC1O2)C(=O)c1cccc2ccccc12 (stereo not drawn) [Compound 25]
4 | 36% | 35% | 37% | N=C(N)NCCCCN(CC12CC=CCC1C1CC=CCC1O2)C(=O)c1ccc2ccccc2c1 (stereo not drawn) [Compound 26]
5 | 59% | 56% | 62% | Cc1cc2c(cc1CN(CCCCNC(=N)N)C(=O)C1CCCCC1)C(C)(C)CCC2(C)C [Compound 27]
6 | 52% | 46% | 57% | Cc1cc2c(cc1CN(CCCCNC(=N)N)C(=O)c1cccc3ccccc13)C(C)(C)CCC2(C)C [Compound 28]
7 | 57% | 53% | 61% | Cc1cc2c(cc1CN(CCCCNC(=N)N)C(=O)c1ccc3ccccc3c1)C(C)(C)CCC2(C)C [Compound 29]
8 | 33% | 29% | 37% | Cc1cc2c(cc1CN(CCCCNC(=N)N)C(=O)c1ccco1)C(C)(C)CCC2(C)C [Compound 30]
9 | 45% | 44% | 45% | Cc1cc2c(cc1CN(CCCCNC(=N)N)C(=O)c1ccccc1)C(C)(C)CCC2(C)C [Compound 31]
10 | 57% | 52% | 61% | Cc1cc2c(cc1CN(CCCCNC(=N)N)C(=O)c1ccc(Cl)nc1)C(C)(C)CCC2(C)C [Compound 32]
11 | 59% | 52% | 65% | N=C(N)NCCCCN(Cc1ccc(OCc2ccccc2)c(OCc2ccccc2)c1)C(=O)C1CCCCC1 [Compound 33]
12 | 51% | 45% | 57% | N=C(N)NCCCCN(Cc1ccc(OCc2ccccc2)c(OCc2ccccc2)c1)C(=O)c1cccc2ccccc12 [Compound 34]
13 | 52% | 50% | 54% | CC(=O)N(CCCCNC(=N)N)Cc1ccc(OCc2ccccc2)c(OCc2ccccc2)c1 [Compound 35]
14 | 58% | 56% | 59% | CN(C)CCCOc1ccc(CN(Cc2cccc(CNC(=N)N)c2)C(=O)c2ccc3ccccc3c2)cc1 [Compound 36]
15 | 60% | 59% | 61% | N=C(N)NCc1cccc(CN(CC23CC=CCC2C2CC=CCC2O3)C(=O)C2CCCCC2)c1 (stereo not drawn) [Compound 37]
16 | 57% | 59% | 55% | N=C(N)NCc1cccc(CN(CC23CC=CCC2C2CC=CCC2O3)C(=O)c2cccc3ccccc23)c1 (stereo not drawn) [Compound 38]

Row | remaining activity at 10 µM [1] | remaining activity at 10 µM [2] | remaining activity at 10 µM [3] | SMILES
17 | 46% | 46% | 45% | N=C(N)NCc1cccc(CN(CC23CC=CCC2C2CC=CCC2O3)C(=O)c2ccc3ccccc3c2)c1 (stereo not drawn) [Compound 39]
18 | 12% | 12% | 11% | Cc1cc2c(cc1CN(Cc1cccc(CNC(=N)N)c1)C(=O)c1ccco1)C(C)(C)CCC2(C)C [Compound 40]
19 | 45% | 46% | 43% | CC(C)(C)c1ccc(CN(CC2CCCC(CNC(=N)N)C2)C(=O)c2cccc3ccccc23)cc1 (stereo not drawn) [Compound 41]
20 | 58% | 54% | 62% | CC(C)(C)c1ccc(CN(CC2CCCC(CNC(=N)N)C2)C(=O)c2ccc3ccccc3c2)cc1 (stereo not drawn) [Compound 42]
21 | 50% | 47% | 53% | CC(C)(C)c1ccc(CN(CC2CCCC(CNC(=N)N)C2)C(=O)c2cccs2)cc1 (stereo not drawn) [Compound 43]
22 | 60% | 58% | 62% | CC(C)(C)c1ccc(CN(CC2CCCC(CNC(=N)N)C2)C(=O)c2ccccc2)cc1 (stereo not drawn) [Compound 44]
23 | 49% | 45% | 52% | CN(C)CCCOc1ccc(CN(CC2CCCC(CNC(=N)N)C2)C(=O)c2ccc3ccccc3c2)cc1 (stereo not drawn) [Compound 46]
24 | 42% | 39% | 44% | N=C(N)NCC1CCCC(CN(CC23CC=CCC2C2CC=CCC2O3)C(=O)c2cccc3ccccc23)C1 (stereo not drawn) [Compound 47]
25 | 44% | 48% | 40% | N=C(N)NCC1CCCC(CN(CC23CC=CCC2C2CC=CCC2O3)C(=O)c2ccc3ccccc3c2)C1 (stereo not drawn) [Compound 48]
26 | 58% | 53% | 62% | N=C(N)NCC1CCCC(CN(CC23CC=CCC2C2CC=CCC2O3)C(=O)c2ccc(Cl)nc2)C1 (stereo not drawn) [Compound 49]
27 | 55% | 47% | 62% | N=C(N)NCC1CCCC(CN(Cc2cnc3ccccc3c2)C(=O)c2cccc3ccccc23)C1 (stereo not drawn) [Compound 50]
28 | 56% | 48% | 63% | N=C(N)NCC1CCCC(CN(Cc2cnc3ccccc3c2)C(=O)c2ccc3ccccc3c2)C1 (stereo not drawn) [Compound 51]
29 | 58% | 57% | 59% | Cc1cc2c(cc1CN(CC1CCCC(CNC(=N)N)C1)C(=O)C1CCCCC1)C(C)(C)CCC2(C)C (stereo not drawn) [Compound 52]
30 | 51% | 46% | 55% | Cc1cc2c(cc1CN(CC1CCCC(CNC(=N)N)C1)C(=O)c1cccc3ccccc13)C(C)(C)CCC2(C)C (stereo not drawn) [Compound 53]
31 | 54% | 49% | 59% | Cc1cc2c(cc1CN(CC1CCCC(CNC(=N)N)C1)C(=O)c1ccc3ccccc3c1)C(C)(C)CCC2(C)C (stereo not drawn) [Compound 54]
